Literature values in patent US20260256742A1, “ANDROGEN RECEPTOR ANTAGONISTS FOR THE TREATMENT OF PATIENTS WITH BIOCHEMICAL RECURRENCE OF HORMONE SENSITIVE PROSTATE CANCER” (BAYER CONSUMER CARE AG, priority 2023, published 2026).

Tests used:
[1] = in vivo; cited from earlier work
[2] = single oral administration; cited from earlier work
nmCRPC = details: in combination with ADT, patients with nmCRPC; cited from earlier work
T878A AR mutant = T878A AR mutant (Homo sapiens, UniProt P10275, T878A); details: cited from earlier work
T878A AR mutant, sequence (P10275 whole entry T878A): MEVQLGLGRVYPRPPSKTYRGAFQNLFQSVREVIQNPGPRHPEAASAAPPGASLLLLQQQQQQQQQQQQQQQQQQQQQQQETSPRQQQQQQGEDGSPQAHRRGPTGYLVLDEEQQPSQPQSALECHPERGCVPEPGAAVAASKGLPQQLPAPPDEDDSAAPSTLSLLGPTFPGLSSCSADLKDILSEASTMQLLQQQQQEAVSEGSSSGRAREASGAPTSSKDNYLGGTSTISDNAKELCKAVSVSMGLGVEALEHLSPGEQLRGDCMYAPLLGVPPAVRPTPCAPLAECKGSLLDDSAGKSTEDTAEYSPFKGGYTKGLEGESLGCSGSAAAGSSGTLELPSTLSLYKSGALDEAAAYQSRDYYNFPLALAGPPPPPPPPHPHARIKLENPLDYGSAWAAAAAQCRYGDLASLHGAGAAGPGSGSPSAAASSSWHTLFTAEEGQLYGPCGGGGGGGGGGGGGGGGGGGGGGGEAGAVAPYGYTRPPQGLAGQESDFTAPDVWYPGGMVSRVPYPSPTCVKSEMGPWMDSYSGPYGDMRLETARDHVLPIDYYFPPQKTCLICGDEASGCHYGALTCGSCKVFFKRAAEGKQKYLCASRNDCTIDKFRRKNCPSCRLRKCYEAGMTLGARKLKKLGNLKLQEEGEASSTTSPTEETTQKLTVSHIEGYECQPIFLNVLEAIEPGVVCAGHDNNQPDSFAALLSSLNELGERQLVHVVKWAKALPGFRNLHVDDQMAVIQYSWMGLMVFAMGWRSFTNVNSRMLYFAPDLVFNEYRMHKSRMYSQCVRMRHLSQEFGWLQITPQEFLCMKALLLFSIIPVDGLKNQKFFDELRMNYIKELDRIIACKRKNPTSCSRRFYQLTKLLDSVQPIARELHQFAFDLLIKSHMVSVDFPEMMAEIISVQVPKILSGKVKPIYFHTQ

Structure (SMILES)	metastatic free survival (MFS) (nmCRPC)	overall survival (OS) (nmCRPC)	other results
CC(Cn1ccc(-c2ccc(C#N)c(Cl)c2)n1)NC(=O)c1cc(C(C)O)[nH]n1 (single isomer, unassigned) [(S,R) diastereoisomer]	–	–	elimination compared with the other diastereoisomer [1]: faster elimination
CC(O)c1cc(C(=O)N[C@@H](C)Cn2ccc(-c3ccc(C#N)c(Cl)c3)n2)[nH]n1 (some centres unmarked) [[^14C]-darolutamide]	–	–	exposure in prostate tissue [2]: higher; tissue distribution [2]: wide and homogenous distribution in all tissues except the brain
CNC(=O)c1ccc(N2C(=S)N(c3cnc(C#N)c(C(F)(F)F)c3)C(=O)C23CCC3)cc1F [apalutamide]	significantly increased	significantly increased	–
CNC(=O)c1ccc(N2C(=S)N(c3ccc(C#N)c(C(F)(F)F)c3)C(=O)C2(C)C)cc1F [enzalutamide]	significantly increased	significantly increased	–
CC(C)(O)C(=O)Nc1ccc([N+](=O)[O-])c(C(F)(F)F)c1 [hydroxyflutamide]	–	–	action in T878A AR mutant (T878A AR mutant): AR agonists
